Read-outs that look alike come from different tables or passages of the source.
Experiments:
Drosophila OR85b = molecular target: T1, Drosophila OR85b (Drosophila melanogaster, UniProt Q9VHQ7); experiment: Calcium ion fluorescence (GCaMP6) assay, OR85b stable HEK293 cell line; format: cell-based; conditions: for Average response: VUAA1-normalized response, mean of biological replicates; for activation at 1 µM / activation at 10 µM / activation at 100 µM: HEK293, read-out: OR85b response (VUAA1-normalized response)
T1 construct: expressed in transfected cells
T1 sequence (Q9VHQ7 1-390): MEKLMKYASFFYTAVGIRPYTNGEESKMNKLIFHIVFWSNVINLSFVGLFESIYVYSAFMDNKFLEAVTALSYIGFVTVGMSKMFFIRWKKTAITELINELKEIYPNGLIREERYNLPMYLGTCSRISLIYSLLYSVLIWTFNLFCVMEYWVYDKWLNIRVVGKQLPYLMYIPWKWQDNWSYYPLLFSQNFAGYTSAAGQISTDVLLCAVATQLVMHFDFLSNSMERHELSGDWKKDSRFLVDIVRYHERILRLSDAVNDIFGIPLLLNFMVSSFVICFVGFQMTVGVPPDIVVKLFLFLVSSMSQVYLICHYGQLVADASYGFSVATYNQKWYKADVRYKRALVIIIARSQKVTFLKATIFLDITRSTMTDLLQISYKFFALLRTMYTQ
T1 sequence (Q9VNB5 1-486 partner): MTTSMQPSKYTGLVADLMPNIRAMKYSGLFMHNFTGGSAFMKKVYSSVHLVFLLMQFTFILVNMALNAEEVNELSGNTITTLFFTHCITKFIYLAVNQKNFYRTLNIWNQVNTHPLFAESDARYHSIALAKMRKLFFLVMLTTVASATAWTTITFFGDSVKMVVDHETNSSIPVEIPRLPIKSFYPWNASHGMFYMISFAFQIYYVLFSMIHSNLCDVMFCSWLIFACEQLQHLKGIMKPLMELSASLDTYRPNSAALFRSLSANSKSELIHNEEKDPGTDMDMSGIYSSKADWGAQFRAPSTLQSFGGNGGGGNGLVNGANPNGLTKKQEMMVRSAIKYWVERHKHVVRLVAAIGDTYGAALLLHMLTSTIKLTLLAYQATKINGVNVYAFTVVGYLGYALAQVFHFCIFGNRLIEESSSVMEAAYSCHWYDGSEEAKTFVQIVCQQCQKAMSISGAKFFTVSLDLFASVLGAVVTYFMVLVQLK
Summary of the method: (§1)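 Responses are VUAA1-normalized ΔF: each VOC-evoked calcium signal, (FMAX−F0)/F0 over 30 s after injection, divided by the same line's mean 50 µM VUAA1 response. Cells were doxycycline-induced HEK293 with GCaMP6 and the cognate Drosophila OR, in HEPES buffer pH 7.3; ligands tested 0.01–100 μM.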

Drosophila OR10a = molecular target: T2, Drosophila OR10a (Drosophila melanogaster, UniProt Q9VYZ1); experiment: Calcium ion fluorescence (GCaMP6) assay, OR10a stable HEK293 cell line; format: cell-based
T2 construct: expressed in transfected cells
T2 sequence (Q9VYZ1 1-406): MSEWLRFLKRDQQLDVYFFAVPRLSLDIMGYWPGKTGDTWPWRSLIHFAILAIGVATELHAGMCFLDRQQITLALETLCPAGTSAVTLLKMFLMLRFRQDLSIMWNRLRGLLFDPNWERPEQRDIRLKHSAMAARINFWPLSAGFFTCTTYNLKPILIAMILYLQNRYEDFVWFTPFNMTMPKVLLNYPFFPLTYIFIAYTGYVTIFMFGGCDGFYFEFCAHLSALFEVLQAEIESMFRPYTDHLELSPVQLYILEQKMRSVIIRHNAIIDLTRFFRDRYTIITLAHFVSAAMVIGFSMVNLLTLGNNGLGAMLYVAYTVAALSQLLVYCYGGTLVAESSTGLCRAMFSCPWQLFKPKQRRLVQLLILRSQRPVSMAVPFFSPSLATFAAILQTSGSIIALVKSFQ
T2 sequence (Q9VNB5 1-486 partner): T1 sequence (Q9VNB5 1-486 partner)
Summary of the method: as §1

[1] = ligand concentration 10 (unit not given), 0.05 threshold, values below shown as 0
[2] = HEK293, 1 μM VOC, 50 μM VUAA1 = 1, responses not exceeding 0.05 considered 0, read-out: OR10a Average response (VUAA1-normalized)
[3] = HEK293, 10 μM VOC, 50 μM VUAA1 = 1, responses not exceeding 0.05 considered 0, read-out: OR10a Average response (VUAA1-normalized)
[4] = HEK293, 100 μM VOC, 50 μM VUAA1 = 1, responses not exceeding 0.05 considered 0, read-out: OR10a Average response (VUAA1-normalized)
[5] = concentration 1, normalized fluorescence change, values below 0.05 threshold given as 0
[6] = concentration 10, normalized fluorescence change, values below 0.05 threshold given as 0
[7] = concentration 100, normalized fluorescence change, values below 0.05 threshold given as 0
[8] = HEK293, read-out: OR10a response (VUAA1-normalized response), VOC concentration 1 μM
[9] = HEK293, read-out: OR10a response (VUAA1-normalized response), VOC concentration 10 μM
[10] = HEK293, read-out: OR10a response (VUAA1-normalized response), VOC concentration 100 μM
[11] = ligand concentration 1 (unit not given), threshold 0.05, below shown as 0
[12] = ligand concentration 10 (unit not given), threshold 0.05, below shown as 0
[13] = ligand concentration 100 (unit not given), threshold 0.05, below shown as 0
[14] = HEK293, read-out: OR10a Average response (VUAA1-normalized), 1 μM VOC, 50 μM VUAA1 = 1, responses not exceeding 0.05 considered 0
[15] = HEK293, read-out: OR10a Average response (VUAA1-normalized), 10 μM VOC, 50 μM VUAA1 = 1, responses not exceeding 0.05 considered 0
[16] = HEK293, read-out: OR10a Average response (VUAA1-normalized), 100 μM VOC, 50 μM VUAA1 = 1, responses not exceeding 0.05 considered 0

| SMILES | Average response (Drosophila OR85b; OR85b cell line, cc. 1 µM) | Average response (Drosophila OR85b; OR85b cell line, cc. 10 µM) | Average response (Drosophila OR85b; OR85b cell line, cc. 100 µM) | activation at 1 µM (Drosophila OR10a; [2]) [%] | activation at 10 µM (Drosophila OR10a; [3]) [%] | activation at 100 µM (Drosophila OR10a; [4]) [%] | activation at 1 µM (Drosophila OR85b) [%] | activation at 10 µM (Drosophila OR85b) [%] | activation at 100 µM (Drosophila OR85b) [%] | DF norm AVERAGE OR85b (Drosophila OR85b; [5]) | DF norm AVERAGE OR85b (Drosophila OR85b; [6]) | DF norm AVERAGE OR85b (Drosophila OR85b; [7]) | activation at 1 µM (Drosophila OR10a; [8]) [%] | activation at 10 µM (Drosophila OR10a; [9]) [%] | activation at 100 µM (Drosophila OR10a; [10]) [%] | activation at 1 µM (Drosophila OR10a; [14]) [%] | activation at 10 µM (Drosophila OR10a; [15]) [%] | activation at 100 µM (Drosophila OR10a; [16]) [%] | other results |
| --- | --- | --- | --- | --- | --- | --- | --- | --- | --- | --- | --- | --- | --- | --- | --- | --- | --- | --- | --- |
| CCCCCCCCCCCCCC [tetradecane] | 0.10 | 0.0844 | 0.04 | 11 | 4.22 | 8 | – | – | – | – | – | – | – | – | – | – | – | – | OR85b response (VUAA1-normalized) at 1 μM (Drosophila OR85b; OR85b cell line, VOC concentration 1 μM): 0.10; OR85b response (VUAA1-normalized) at 10 μM (Drosophila OR85b; OR85b cell line, VOC concentration 10 μM): 0.0844; OR85b response (VUAA1-normalized) at 100 μM (Drosophila OR85b; OR85b cell line, VOC concentration 100 μM): 0.00; DF norm AVERAGE OR85b (Drosophila OR85b; ligand concentration 1 (unit not given), 0.05 threshold, values below shown as 0): 0.0972; DF norm AVERAGE OR85b (Drosophila OR85b; [1]): 0.08442; DF norm AVERAGE OR85b (Drosophila OR85b; ligand concentration 100 (unit not given), 0.05 threshold, values below shown as 0): 0; OR10a response (VUAA1-normalized) at 1 μM (Drosophila OR10a; OR10a cell line, VOC concentration 1 μM): 0.11; OR10a response (VUAA1-normalized) at 10 μM (Drosophila OR10a; OR10a cell line, VOC concentration 10 μM): 0.00; OR10a response (VUAA1-normalized) at 100 μM (Drosophila OR10a; OR10a cell line, VOC concentration 100 μM): 0.08; DF norm AVERAGE OR10a (Drosophila OR10a; ligand concentration 1 (unit not given), […]): 0.1095; DF norm AVERAGE OR10a (Drosophila OR10a; [1]): 0; DF norm AVERAGE OR10a (Drosophila OR10a; ligand concentration 100 (unit not given), […]): 0.08392 |
| COc1cccc(OC)c1 [1,3-dimethoxy benzene] | 0.00 | 0.0268 | 0.0367 | 0 | 0 | 0 | 0 | 0 | 0 | 0 | 0 | 0 | 0 | 0 | 0 | – | – | – | DF norm AVERAGE OR10a (Drosophila OR10a): 0 |
| CC1=CCC2CC1C2(C)C (stereo not drawn) [alpha-pinene] | 0.03 | 0.00 | 0.0358 | – | – | – | 0 | 0 | 0 | – | – | – | 0 | 0 | 7.44 | 5 | 0 | 7.44 | DF norm AVERAGE OR85b (Drosophila OR85b; [11]): 0; DF norm AVERAGE OR85b (Drosophila OR85b; [12]): 0; DF norm AVERAGE OR85b (Drosophila OR85b; [13]): 0; DF norm AVERAGE OR10a (Drosophila OR10a; [11]): 0; DF norm AVERAGE OR10a (Drosophila OR10a; [12]): 0; DF norm AVERAGE OR10a (Drosophila OR10a; [13]): 0.07438 |
| CC1=CCC2C(C1)C2(C)C (stereo not shown) [3-carene] | 0.00 | 0.00 | 0.00 | – | – | – | 0 | 0 | 0 | 0 | 0 | 0 | 7 | 0 | 0 | 7 | 0 | 0 | DF norm AVERAGE OR10a (Drosophila OR10a; [5]): 0.0692; DF norm AVERAGE OR10a (Drosophila OR10a; [6]): 0; DF norm AVERAGE OR10a (Drosophila OR10a; [7]): 0 |

Source: PMC10709440, “High-throughput ligand profile characterization in novel cell lines expressing seven heterologous insect olfactory receptors for the detection of volatile plant biomarkers” (Scientific Reports, 2023)
